Test results taken from US7915405B2, “2,4-disubstituted-5-aminocarbonyl-1,3-thiazole derivatives for therapeutic agent of antiinflammatory disease, method thereof for preparation, therapeutic agent for antiinflammatory disease induced by SPC activity containing the same” (Korea Research Institute of Chemical Technology, priority 2008, dated 2011).
Read-outs that look alike come from different tables or passages of the source.

Experiments:
NIH 3T3 cells = experiment: Control of cellular division and proliferation induced by SPC ([3H]-thimidine incorporation); assay type: cell-based; conditions: for IC50: compound 0.001-1 μM 30 minutes, then SPC 7 μM, 24 hours, read-out: antagonistic effect on SPC IC50; for inhibition of cellular division and proliferation induced by SPC (in words): SPC 7 μM
Method: Treatment of cells with sphingosylphosphorylcholine (SPC) can induce excessive cellular division and proliferation, thus causing pathological skin conditions [Desai, Biochem. Biophys. […] Accordingly, the compounds prepared in the above Examples were tested for an effect on cellular division and proliferation induced by SPC.
First, 1×10^5 (usually 1×10^4˜10^5) NIH 3T3 cells (American Type Culture Collection, Manassas, Va., USA) were dispensed and cultured on a culture plate, and then cultured in RPMI medium containing no fetal bovine serum for 24 hours to achieve serum starvation. The cells were treated with the compounds prepared in the above Examples, and FTY720, a sphingosine-1-phosphate (S1P) agonist, at concentrations of 0.001 μM, 0.01 μM, 0.1 μM and 1 μM, and were incubated for 30 minutes. Then, SPC (Biomol, Plymouth Meeting, Pa., USA) was added thereto at a concentration of 7 μM, and the cells were incubated at 37° C. for 24 hours. […] Proliferation %=(group treated with test drug−group not treated with SPC)/(group treated with SPC alone−group not treated with SPC)×100 [Equation 1]

[1] = system: TPA-induced inflammation model; experiment: Control of inflammatory reaction in mouse TPA-induced inflammation model (ear weight and MPO activity); assay type: in vivo; conditions: ICR mice; for Inhibition (%) of inflammatory reaction (ear edema, ear weight) / Inhibition (%) (MPO inhibition): 0.3% in acetone, 20 μl on the ear at 1 hour and 6 hours after TPA; for Inhibition (%) of inflammatory reaction (ear edema, ear weight): measured at 24 hours; for inhibition of TPA-induced inflammatory reactions, ear edema and MPO activity (in words): 0.3% topical, compared with hydrocortisone; for Inhibition (%) (MPO inhibition): value in brackets, MPO activity of ear at 24 hours
Method: In order to examine an inhibitory effect on inflammatory reactions, the following test was carried out using tetradecanoyl phorbol acetate (hereinafter referred to as “TPA”)-induced inflammation model.
The TPA-induced inflammation model was a test method which has been widely used to test inflammatory reaction mechanisms and the effect of inhibitory substances [De Young L M et al., Agents and Actions, 1989, 26, 335-341]. When TPA which is a substance causing an inflammatory reaction is applied to the ear of a test subject, erythema and edema occur. Such inflammatory reactions are measurable through the increase in the activity of myeloperoxidase (MPO) which is essential for bacterial invasion into white blood cells.
Forty 6-week-old ICR mice were prepared, and 20 μl of a TPA solution (Sigma Aldrich Korea) obtained by dissolving TPA in acetone at a concentration of 125 μg/ml was applied to the left ear of each animal. At 1 hour after the application of TPA, 20 μl of each of acetone, the compounds of Examples dissolved in acetone at a concentration of 0.3%, and hydrocortisone (Sigma Aldrich Korea) dissolved in acetone at a concentration of 0.3% was applied to the TPA-applied site, and at 6 hours after the application of TPA, it was applied again to the same site in the same amount (20 μl). At 24 hours after the application of TPA, the mice were sacrificed by cervical dislocation, and the left ear was collected in a given width and measured for weight and MPO activity. Inhibition % of inflammatory reactions was calculated according to the following equation 3, and the results are shown in Table 4 below. Inhibition %=(group treated with TPA alone−group treated with test drug)/(group treated with TPA alone−group not treated with TPA)×100 [Equation 3]

[2] = Mus musculus, NIH3T3, serum starved

SMILES	IC50 (NIH 3T3 cells; serum starved)	further results
CC(C)(C)C(=O)Nc1nc(NCCN2CCCC2)sc1C(=O)N1CCOCC1 [Example 1-13]	12.7 nM	
CC(C)(C)C(=O)Nc1nc(NCc2ccccc2)sc1C(=O)N1CCCC1 [Example 1-45]	970 nM	
CC(C)(C)C(=O)Nc1nc(N2CCN(c3ccccn3)CC2)sc1C(=O)N1CCCCC1 [Example 1-36]	540 nM	
COc1ccccc1N1CCN(c2nc(NC(=O)C(C)(C)C)c(C(=O)N3CCOCC3)s2)CC1 [Example 1-7]	271 nM	
CC(C)(C)C(=O)Nc1nc(NCCN2CCCCC2)sc1C(=O)N1CCOCC1 [Example 1-12, N-{5-(morpholine-4-carbonyl)-2-[2-(piperidin-1-yl)ethylamino]thiazol-4-yl}pivalamide]		IC50 (NIH 3T3 cells; [2]): 5.81 nM; inhibition of cellular division and proliferation induced by SPC (in words) (NIH 3T3 cells): dose-dependently inhibited; Inhibition (%) of inflammatory reaction (ear edema, ear weight) [1]: 86%; inhibition of TPA-induced inflammatory reactions, ear edema and MPO activity (in words) [1]: significantly inhibited; Inhibition (%) (MPO inhibition) [1]: 80%
CCCCC(=O)Nc1nc(N2CCC(N3CCCC3)CC2)sc1C(=O)N1CCOCC1 [Example 1-22]	96 nM	Inhibition (%) of inflammatory reaction (ear edema, ear weight) [1]: 53%; Inhibition (%) (MPO inhibition) [1]: 48%
CC(C)(C)C(=O)Nc1nc(N2CCC(N3CCOCC3)CC2)sc1C(=O)N1CCOCC1 [Example 1-14]	9.3 nM	Inhibition (%) of inflammatory reaction (ear edema, ear weight) [1]: 71%
CC(C)(C)C(=O)Nc1nc(NCC2CCCCC2)sc1C(=O)N1CCCCC1 [Example 1-28]	716 nM	Inhibition (%) of inflammatory reaction (ear edema, ear weight) [1]: 43%
CC(C)(C)C(=O)Nc1nc(NCc2ccccc2)sc1C(=O)N1CCCCC1 [Example 1-29, N-[2-(benzylamino)-5-(piperidine-1-carbonyl)thiazol-4-yl]pivalamide]		IC50 (NIH 3T3 cells; [2]): 6.12 nM; inhibition of cellular division and proliferation induced by SPC (in words) (NIH 3T3 cells): dose-dependently inhibited; Inhibition (%) of inflammatory reaction (ear edema, ear weight) [1]: 87%; inhibition of TPA-induced inflammatory reactions, ear edema and MPO activity (in words) [1]: significantly inhibited; Inhibition (%) (MPO inhibition) [1]: 83%
CCCCC(=O)Nc1nc(NCCN2CCCCC2)sc1C(=O)N1CCOCC1 [Example 1-20]	7.5 nM	Inhibition (%) of inflammatory reaction (ear edema, ear weight) [1]: 62%
CC(C)(C)C(=O)Nc1nc(NCC2CC2)sc1C(=O)N1CCCCC1 [Example 1-27]	308 nM	
CC(C)(C)C(=O)Nc1nc(N2CCC(N3CCCCC3)CC2)sc1C(=O)N1CCCCC1 [Example 1-38]	176 nM	
COc1ccccc1N1CCN(c2nc(NC(C)=O)c(C(=O)N3CCOCC3)s2)CC1 [Example 1-23]	850 nM	
COc1ccccc1N1CCN(c2nc(NC(=O)C3CC3)c(C(=O)N3CCOCC3)s2)CC1 [Example 1-25]	67 nM	
COc1ccccc1N1CCN(c2nc(NC(=O)C3CCCCC3)c(C(=O)N3CCOCC3)s2)CC1 [Example 1-24]	910 nM	
CC(C)(C)C(=O)Nc1nc(N2CCC(N3CCCCC3)CC2)sc1C(=O)N1CCOCC1 [Example 1-16]	103 nM	
CC(C)(C)C(=O)Nc1nc(N2CCC(N3CCCC3)CC2)sc1C(=O)N1CCOCC1 [Example 1-15]	20.7 nM	
CC(C)(C)C(=O)Nc1nc(N2CCN(c3ccc(Cl)cc3)CC2)sc1C(=O)N1CCOCC1 [Example 1-8]	730 nM	
CC(C)(C)C(=O)Nc1nc(N2CCN(c3ccc(F)cc3)CC2)sc1C(=O)N1CCCCC1 [Example 1-34]	57 nM	
C[C@]12CCC(=O)C=C1CC[C@@H]1[C@@H]2[C@@H](O)C[C@@]2(C)[C@H]1CC[C@]2(O)C(=O)CO [Hydrocortisone, hydrocortisone, reference compound]		Inhibition (%) of inflammatory reaction (ear edema, ear weight) [1]: 85%
CCCCC(=O)Nc1nc(NCc2ccccc2)sc1C(=O)N1CCOCC1 [Example 1-19]	79 nM	
CC(C)(C)C(=O)Nc1nc(N2CCN(c3ccccc3C#N)CC2)sc1C(=O)N1CCCCC1 [Example 1-35]	94 nM	
CCCCCCCCc1ccc(CCC(N)(CO)CO)cc1 [FTY720, reference compound]		inhibition of cellular division and proliferation induced by SPC (in words) (NIH 3T3 cells): did not inhibit
CCCCC(=O)Nc1nc(NCCN2CCCCC2)sc1C(=O)N1CCCCC1 [Example 1-42]	102 nM	
